Converted amounts (≈) assume the structure as drawn. Read-outs that look alike come from different tables or passages of the source.
Columns and labels:
P. aeruginosa [1] = experiment: Antibiotic synergy in the C. elegans LK model; type: in vivo, Caenorhabditis elegans; design: C. elegans antibiotic synergy, Mean Diff.: unit not given here
Procedure: Assessment of antibiotic synergy in the C. elegans model was adapted from previously described protocols ([25]). Briefly, glp-4 C. elegans worms were incubated at 25°C with P. aeruginosa and the indicated amount of gallein or DMSO in LK medium as described above. After 24 h, antibiotics were added. After another 24 h, C. elegans survival was scored as described above.

P. aeruginosa [2] = experiment: microbe, parasite or virus in culture; type: cell-based, Pseudomonas aeruginosa; details: Pseudomonas aeruginosa
P. aeruginosa PPK2C = target: T1, P. aeruginosa PPK2C (Pseudomonas aeruginosa, UniProt Q9HYF1); experiment: PPK2C AMP phosphorylation by polyP (ADP synthesis), toluidine blue detection; type: biochemical
T1 construct: MBP (N, cleaved yes); His tag (N, cleaved yes); made in house; host or cells: E. coli BL21(DE3)
Procedure: (§1) All IC50 and kinetic assay mixtures contained equimolar amounts (275 nM) of PPK to ensure valid comparison between different enzymes. PolyP synthesis activity (for PPK1 and PPK2B) was assayed using the reaction buffer and conditions described above. ATP concentration was varied as indicated for kinetic experiments. Curves were fit using GraphPad Prism V9.
(§2) Nucleotide phosphorylation activity of PPK2 enzymes was assayed in buffer containing 50 mM Tris-HCl, pH 7.5, 10 mM (NH4)2SO4, 10 mM MgCl2, 5 mM polyP45 (Sigma; in terms of individual Pi monomers), and nucleotide (ADP or AMP) at 5 mM for IC50 reactions or as indicated for kinetic experiments. Enzyme was added to a final concentration of 275 nM in 100-μl reaction volumes. One-hundred-microliter reaction mixtures were incubated at 37°C for 30 min, and then 5-μl aliquots were withdrawn and added to 1,000 μl of 6-mg/liter toluidine blue dissolved in 40 mM acetic acid to quench the reaction and quantify the polyP that remained. The A630/530 nm ratio was then recorded, and the values obtained were corrected by subtracting the corresponding blanks (all ingredients except enzyme). The amount of polyP consumed was calculated by subtracting the amount present after reaction from that present in the initial reaction mix, as calculated via a standard curve. Each monomer of Pi consumed from polyP equates to one nucleoside phosphorylated. Curves were fit using GraphPad Prism V9.

P. aeruginosa PPK1 = target: T2, P. aeruginosa PPK1 (Pseudomonas aeruginosa, UniProt P0DP44); experiment: PPK1 polyP synthesis from ATP, toluidine blue detection; type: biochemical; details: polyP synthesis from ATP; 275 nM enzyme
T2 construct: His tag (cleaved yes); made in house
Procedure: Compounds were synthesized as outlined in Text S1. Compounds were dissolved in DMSO to make 10 mM stocks and added to a 200 μM final concentration for initial screening. The screen for PPK1 inhibitors was conducted by measuring polyP synthesis activity as described previously ([12]), with the exception of the polyP detection method (see Text S1). […] One-hundred-microliter reaction mixtures were incubated at 37°C for 30 min, after which time 50-μl aliquots were withdrawn and added to 1,000 μl of 6-mg/liter toluidine blue dissolved in 40 mM acetic acid to quench the reaction and quantify polyP ([27]). The A630/530 nm ratio was then recorded, and the values obtained were corrected by subtracting the corresponding blanks (all ingredients except enzyme). The amount of polyP synthesized was calculated using a standard curve (Fig. S1A). Any compounds showing 50% or greater reduction in activity relative to the DMSO control were subjected to further IC50 analysis.
as §1

P. aeruginosa PPK2A = target: T3, P. aeruginosa PPK2A (Pseudomonas aeruginosa, UniProt Q9I6Z1); experiment: PPK2A ADP phosphorylation by polyP (ATP synthesis), toluidine blue detection; type: biochemical
T3 construct: residues P9 to P289; MBP (N, cleaved yes); His tag (N, cleaved yes); made in house; host or cells: E. coli BL21(DE3)
Procedure: as §1, §2

P. aeruginosa PPK2B = target: T4, P. aeruginosa PPK2B (Pseudomonas aeruginosa, UniProt Q9I154); experiment: PPK2B polyP synthesis from ATP, toluidine blue detection; type: biochemical
T4 construct: MBP (N, cleaved yes); His tag (N, cleaved yes); made in house; host or cells: E. coli BL21(DE3)
Procedure: Compounds were synthesized as outlined in Text S1. Compounds were dissolved in DMSO to make 10 mM stocks and added to a 200 μM final concentration for initial screening. The screen for PPK1 inhibitors was conducted by measuring polyP synthesis activity as described previously ([12]), with the exception of the polyP detection method (see Text S1). The reaction mix contained 50 mM HEPES-KOH, pH 7.5, 40 mM (NH4)2SO4, 4 mM MgSO4, 60 mM creatine phosphate, 0.0625 mg/ml creatine kinase (Sigma; from rabbit muscle), 5 mM ATP, and 275 nM PPK1 (added last). One-hundred-microliter reaction mixtures were incubated at 37°C for 30 min, after which time 50-μl aliquots were withdrawn and added to 1,000 μl of 6-mg/liter toluidine blue dissolved in 40 mM acetic acid to quench the reaction and quantify polyP ([27]). The A630/530 nm ratio was then recorded, and the values obtained were corrected by subtracting the corresponding blanks (all ingredients except enzyme). The amount of polyP synthesized was calculated using a standard curve (Fig. S1A). Any compounds showing 50% or greater reduction in activity relative to the DMSO control were subjected to further IC50 analysis.
as §1

HEK293T cells = experiment: HEK293T cytotoxicity assay, trypan blue; type: cell-based, human; details: 48 h incubation
Procedure: HEK293 cells were grown in Dulbecco’s modified Eagle’s medium supplemented with 10% fetal bovine serum at 5% CO2 and 37°C. Cells were grown until a confluent monolayer was formed in 12-well culture plates, at which point inhibitors or DMSO was added. After 48-h incubation, cells were detached with trypsin and percent viability was scored via a hemocytometer and trypan blue staining.

E. coli PPK1 = system: E. coli PPK1; design: method as in earlier work; details: ref 1 (supplement: Ahn K, Kornberg A. 1990); cited from earlier work
[3] = ADP synthesis from AMP and polyP, 275 nM enzyme, read-out: IC50 PPK2C
[4] = Data Set S1, sheet Risen compounds, read-out: PA PPK2C IC50
[5] = ATP synthesis from ADP and polyP, 275 nM enzyme, read-out: IC50 PPK2A
[6] = polyP synthesis from ATP, 275 nM enzyme, read-out: IC50 PPK2B
[7] = Data Set S1, sheet Risen compounds, read-out: PA PPK2A IC50

T4 sequence (Q9I154 whole entry): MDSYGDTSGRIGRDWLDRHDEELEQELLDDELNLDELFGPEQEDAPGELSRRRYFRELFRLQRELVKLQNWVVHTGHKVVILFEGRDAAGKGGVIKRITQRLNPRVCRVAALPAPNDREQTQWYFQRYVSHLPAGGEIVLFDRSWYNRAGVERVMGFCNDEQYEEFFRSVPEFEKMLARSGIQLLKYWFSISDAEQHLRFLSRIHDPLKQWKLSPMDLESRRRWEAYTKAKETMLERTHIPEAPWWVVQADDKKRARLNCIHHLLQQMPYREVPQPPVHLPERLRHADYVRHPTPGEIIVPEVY
T1 sequence (Q9HYF1 whole entry): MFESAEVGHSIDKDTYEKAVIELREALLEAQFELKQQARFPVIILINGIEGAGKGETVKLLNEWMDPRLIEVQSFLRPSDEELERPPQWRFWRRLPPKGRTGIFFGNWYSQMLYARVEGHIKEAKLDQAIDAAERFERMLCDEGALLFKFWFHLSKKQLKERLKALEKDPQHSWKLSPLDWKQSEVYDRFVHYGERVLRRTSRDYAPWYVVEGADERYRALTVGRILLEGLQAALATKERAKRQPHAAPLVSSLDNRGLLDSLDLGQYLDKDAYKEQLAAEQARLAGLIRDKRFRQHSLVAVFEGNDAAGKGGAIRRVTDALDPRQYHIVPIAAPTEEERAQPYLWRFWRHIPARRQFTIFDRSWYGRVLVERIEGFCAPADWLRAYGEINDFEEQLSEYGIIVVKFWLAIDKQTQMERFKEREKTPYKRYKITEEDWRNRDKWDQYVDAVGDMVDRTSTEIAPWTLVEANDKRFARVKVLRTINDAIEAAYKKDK
T3 sequence (Q9I6Z1 68-348): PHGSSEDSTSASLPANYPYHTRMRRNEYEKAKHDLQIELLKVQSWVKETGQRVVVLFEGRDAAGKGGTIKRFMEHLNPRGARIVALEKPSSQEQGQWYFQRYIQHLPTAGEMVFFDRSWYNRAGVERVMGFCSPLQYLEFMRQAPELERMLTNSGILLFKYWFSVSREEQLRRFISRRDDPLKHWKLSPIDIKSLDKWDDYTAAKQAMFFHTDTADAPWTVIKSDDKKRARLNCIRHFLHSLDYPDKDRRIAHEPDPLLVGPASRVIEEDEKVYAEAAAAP
T2 sequence (P0DP44 whole entry): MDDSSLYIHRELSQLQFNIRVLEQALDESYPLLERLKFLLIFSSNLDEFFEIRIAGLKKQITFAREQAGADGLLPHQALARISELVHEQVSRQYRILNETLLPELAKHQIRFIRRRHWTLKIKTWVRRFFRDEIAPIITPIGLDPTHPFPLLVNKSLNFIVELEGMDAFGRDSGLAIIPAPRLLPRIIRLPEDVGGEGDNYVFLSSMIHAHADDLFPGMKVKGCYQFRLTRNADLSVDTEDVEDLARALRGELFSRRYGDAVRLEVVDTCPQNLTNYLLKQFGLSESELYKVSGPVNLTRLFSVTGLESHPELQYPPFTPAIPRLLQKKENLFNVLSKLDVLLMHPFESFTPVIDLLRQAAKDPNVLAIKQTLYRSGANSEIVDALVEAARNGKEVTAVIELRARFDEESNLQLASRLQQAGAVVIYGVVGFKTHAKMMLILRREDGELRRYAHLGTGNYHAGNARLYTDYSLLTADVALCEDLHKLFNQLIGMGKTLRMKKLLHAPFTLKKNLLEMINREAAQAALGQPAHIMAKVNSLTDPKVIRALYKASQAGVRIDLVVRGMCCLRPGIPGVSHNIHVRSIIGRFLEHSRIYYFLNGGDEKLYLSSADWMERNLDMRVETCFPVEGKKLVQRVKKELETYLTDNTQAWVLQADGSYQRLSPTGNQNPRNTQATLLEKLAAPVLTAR

Row | SMILES | IC50 (P. aeruginosa PPK2C; [3]) | IC50 (P. aeruginosa PPK2C; [4]) | IC50 (P. aeruginosa PPK1) | IC50 (P. aeruginosa PPK2A; [5]) | IC50 (P. aeruginosa PPK2B; [6]) | IC50 (P. aeruginosa PPK2A; [7]) | further results
1 | CN(C)[C@@H]1C(O)=C(C(N)=O)C(=O)[C@@]2(O)C(O)=C3C(=O)c4c(O)cccc4[C@@](C)(O)[C@H]3C[C@@H]12 [tetracycline, reference compound] | – | – | – | – | – | – | C. elegans antibiotic synergy, Mean Diff. (P. aeruginosa [1]; No antibiotic + 100 µM gallein vs Tet (10 µg/mL) + 100 µM gallein): -22.79; C. elegans antibiotic synergy, Mean Diff. (P. aeruginosa [1]; No antibiotic DMSO vs Tet (10 µg/mL) DMSO): 10.54; MIC (P. aeruginosa [2]): 16 µg/mL (≈ 36 µM)
2 | O=c1oc2c(O)c(O)cc3c(=O)oc4c(O)c(O)cc1c4c23 [RT3 (ellagic acid), 2,3,7,8-tetrahydroxychromeno[5,4,3-cde]chromene-5,10-dione] | > 500 µM | > 500 µM | 20 ± 2 µM | 50 ± 6 µM | 48 ± 2 µM | – | –
3 | COc1ccc2c(c1OC)c(=O)oc1c(OC)c(O)ccc12 [RT1, 3-hydroxy-4,7,8-trimethoxy-6H-benzo[c]chromen-6-one] | > 500 µM | > 500 µM | 120 ± 10 µM | > 500 µM | > 500 µM | > 500 µM | IC50 (P. aeruginosa PPK2B; Data Set S1, sheet Risen compounds, read-out: PA PPK2B IC50): > 500 µM; reduction of cell viability (HEK293T cells): ~60%
4 | Nc1ncnc2c1ncn2[C@@H]1O[C@H](COP(=O)(O)OP(=O)(O)O)[C@@H](O)[C@H]1O [ADP] | – | – | – | – | – | – | Ki (E. coli PPK1): 90 µM
5 | O=C(O)c1cn(C2CC2)c2cc(N3CCNCC3)c(F)cc2c1=O [ciprofloxacin, reference compound] | – | – | – | – | – | – | C. elegans antibiotic synergy, Mean Diff. (P. aeruginosa [1]; No antibiotic + 100 µM gallein vs Cipro (0.75 µg/mL) + 100 µM gallein): -18.9; C. elegans antibiotic synergy, Mean Diff. (P. aeruginosa [1]; No antibiotic DMSO vs Cipro (0.75 µg/mL) DMSO): 12.02
6 | O=c1oc2c(O)c(O)c(O)c3c(=O)oc4c(O)c(O)cc1c4c23 [RT2, 1,2,3,7,8-pentahydroxychromeno[5,4,3-cde]chromene-5,10-dione] | > 500 µM | > 500 µM | 20 ± 4 µM | > 500 µM | 59 ± 5 µM | > 500 µM | –

— article PMC8262977, “A Dual-Specificity Inhibitor Targets Polyphosphate Kinase 1 and 2 Enzymes To Attenuate Virulence of Pseudomonas aeruginosa” (mBio, 2021)
